In patent US7179819B2, “VLA-4 inhibitor compounds” (Daiichi Pharmaceutical Co., Ltd., priority 1999, dated 2007) one finds melting point and concentration data, which are given here for 32 molecules.

Molecules are shown by their SMILES. Where a name gives a salt, the structure may show the parent alone.

Experiment in one data set: not given
Conditions: not given
In turn, `COc1cc(CC(=O)N2CCC[C@H]2COC2CCC(C(=O)O)CC2)ccc1NC(=O)Nc1ccccc1Br` (stereo partly drawn) [Compound 176, 4-[1-[4-[N′-(2-bromophenyl)ureido]-3-methoxylphenylacetyl]-(2S)-pyrrolidinyl]methoxy cyclohexanecarboxilic acid] had a melting point of 108 to 111 °C.

Turning to `COc1cc(CC(=O)N2C[C@@H](F)C[C@H]2COc2ccc(C(=O)O)cc2)ccc1NC(=O)Nc1ccccc1C(F)(F)F` [Compound 76, 4-[(4S)-fluoro-1-[3-methoxy-4-[N′-(2-trifluoromethylphenyl)ureido]phenylacetyl]-(2S)-pyrrolidinylmethoxy]benzoic acid], the melting point fell in the range of 129 to 132 °C.

`COc1cc(CC(=O)N2C[C@@H](N(C)C)C[C@H]2COc2ccc(C(=O)O)cc2)ccc1NC(=O)Nc1ccccc1Cl` registered a melting point of 165 to 167 °C.

`COc1cc(C(=O)O)ccc1OCc1csc(Cc2ccc(NC(=O)Nc3ccccc3C)cc2)n1` [Compound 41, 3-methoxy-4-[2-[4-[N′-(2-methylphenyl)ureido]benzyl]4-thiazolyl]methoxybenzoic acid] yielded a melting point of 243 to 245 °C.

As to `COc1cc(CC(=O)N(C)[C@@H](C)COc2ccc(C(=O)O)cc2Cl)ccc1NC(=O)Nc1ccccc1C` [Compound 284], the melting point lay in the range of 125 to 130 °C.

Regarding `COc1cc(CC(=O)N2CCCC2CN2CCN(CC(=O)O)CC2)ccc1NC(=O)Nc1ccccc1C` (centres unmarked) (as salt: salt), the melting point fell in the range of 160 to 170 °C.

The molecule `COc1cc(CC(=O)N2CCC[C@H]2COc2ccc(C(=O)O)cn2)ccc1NC(=O)Nc1ccccc1C` (stereo in doubt) [Compound 40, 2-[[1-[3-methoxy-4-[N′-(2-methylphenyl)ureido]phenylacetyl]-2-pyrrolidinyl]methoxy]pyridine-5-carboxylic acid] showed a melting point of 125 to 128 °C.

`COc1cc(CC(=O)N(C)CCOc2ccc(C(=O)O)cc2N2CCCCC2)ccc1NC(=O)Nc1ccccc1C` [Compound 291, 3-(1-piperidinyl)-4-[[2-[3-methoxy-4-[N′-(2-methylphenyl)ureido]phenylacetyl]methylamino]ethoxy]benzoic acid] yielded a melting point of 120 to 125 °C.

As for `COc1cc(CC(=O)N2CC[C@@H](Oc3ccc(C(=O)O)cc3)C2)ccc1NC(=O)Nc1ccccc1Cl` [Compound 186, 4-[1-[4-[N′-(2-chlorophenyl)ureido]-3-methoxyphenylacetyl]-(3R)-pyrrolidinyloxy]benzoic acid], the melting point was 193 to 194 °C.

On to `COc1cc(CC(=O)N2CCC[C@H]2COC2CCC(C(=O)O)CC2)ccc1NC(=O)Nc1ccccc1Cl` (stereo partly drawn) [Compound 175, 4-[[1-[4-[N′-(2-chlorophenyl)ureido]-3-methoxylphenylacetyl]-(2S)-pyrrolidinyl]methoxy]cyclohexanecarboxylic acid], for which the melting point was in the range of 111 to 115 °C.

Molecule `COc1cc(CC(=O)N(CCOc2ccc(C(=O)O)cc2OC)CCN2CCN(C)CC2)ccc1NC(=O)Nc1ccccc1C` [Compound 263] came in with a melting point of 155 to 160 °C.

`COc1cc(CC(=O)N2C[C@@H](Oc3ccc4ncccc4c3)C[C@H]2COc2ccc(C(=O)O)cc2)ccc1NC(=O)Nc1ccccc1Cl` [Compound 121] displayed a melting point of 129 to 133 °C.

In turn, `COc1cc(CC(=O)N2C[C@@H](Cl)C[C@H]2COc2ccc(C(=O)O)cc2)ccc1NC(=O)Nc1ccccc1Br` [Compound 103, 4-[1-[4-[N′-(2-bromophenyl)ureido]-3-methoxyphenylacetyl]-(4S)-chloro-(2S)-pyrrolidinyl]methoxybenzoic acid] displayed a melting point of 127 to 132 °C.

`COc1cc(CC(=O)N2CCC[C@H]2C(=O)NC2CCC(C(=O)O)CC2)ccc1NC(=O)Nc1ccccc1C` (stereo in doubt) [Compound 180, 4-[[1-[3-methoxy-4-[N′-(2-methylphenyl)ureido]phenylacetyl]-2-pyrrolidinyl]carbonylamino]cyclohexanecarboxylic acid] yielded a melting point of 136 to 142 °C.

In turn, `COc1cc(CC(=O)N2C[C@@H](NS(=O)(=O)c3ccc4ccccc4c3)C[C@H]2COc2ccc(C(=O)O)cc2)ccc1NC(=O)Nc1ccccc1Cl` [Compound 161, 4-[cis-1-[4-[N′-(2-chlorophenyl)ureido]-3-methoxylphenylacetyl]-4-(2-naphthalenesulfonamido)-(2S)-pyrrolidinyl]methoxybenzoic acid] came in with a melting point of 135 to 142 °C.

As to `COc1cc(CC(=O)N2C[C@H](OC)C[C@H]2COc2ccc(C(=O)O)cc2)ccc1NC(=O)Nc1ccccc1Br` [Compound 138, 4-[1-[4-[N′-(2-bromophenyl)ureido]-3-methoxyphenylacetyl]-(4R)-methoxy-(2S)-pyrrolidinylmethoxy]benzoic acid], the melting point is 125 to 130 °C.

The molecule `COc1cc(CC(=O)N2CCC[C@H]2CS(=O)(=O)c2cccc(C(=O)O)c2)ccc1NC(=O)Nc1ccccc1C` (stereo in doubt) (as salt: salt) [Compound 21, 3-[[1-[3-methoxy-4-[N′-(2-methylphenyl)ureido]phenylacetyl]-2-pyrrolidinyl]methylsulfonyl]benzoic acid] came in with a melting point of 243 to 245 °C.

`COc1cc(CC(=O)N2C[C@@H](N(C)C)C[C@H]2COc2ccc(C(=O)O)cc2)ccc1NC(=O)Nc1ccccc1C` came in with a melting point of 147 to 150 °C.

For the molecule `COc1cc(CC(=O)N2C[C@@H](Oc3ccc(C(=O)O)cc3)C[C@H]2COc2ccc(C(=O)O)cc2)ccc1NC(=O)Nc1ccccc1Cl` [Compound 117, 4-[(4S)-(4-carboxyphenoxy)-1-[4-[N′-(2-chlorophenyl)uriedo]-3-methoxyphenylacetyl]-(2S)-pyrrolidinylmethoxy]benzoic acid], the melting point is 150 to 153 °C.

Regarding `O=C(Nc1ccc(CC(=O)N2C[C@@H](F)C[C@H]2COc2ccc(C(=O)O)cc2)cc1)Nc1ccccc1C(F)(F)F` [Compound 75, 4-[(4S)-fluoro-1-[4-[N′-(2-trifluoromethylphenyl)ureido]phenylacetyl]-(2S)-pyrrolidinylmethoxy]benzoic acid], the melting point was in the range of 130 to 135 °C.

In the case of `COc1cc(CC(=O)N2CCCC2C#Cc2ccc(C(=O)O)cc2)ccc1NC(=O)Nc1ccccc1` (centres unmarked) [Compound 13, 4-[2-[1-[3-methoxy4-(N′-phenylureido)phenylacetyl]-2-pyrrolidinyl]ethynyl]benzoic acid], the melting point fell in the range of 154 to 157 °C.

As to `COc1cc(CC(=O)N2C[C@H](OC)C[C@H]2COc2ccc(C(=O)O)cc2)ccc1NC(=O)Nc1ccccc1F` [Compound 136, 4-[1-[4-[N′-(2-fluorophenyl)ureido]-3-methoxyphenylacetyl]-(4R)-methoxy-(2S)-pyrrolidinylmethoxy]benzoic acid], the melting point was 111 to 116 °C.

As to `COc1cc(CC(=O)N2C[C@@H](F)C[C@H]2COc2ccc(C(=O)O)cc2)ccc1NC(=O)Nc1c(Cl)cccc1Cl` [Compound 88, 4-[1-[4-[N′-(2,6-dichlorophenyl)ureido]-3-methoxyphenylacetyl]-(4S)-fluoro-(2S)-pyrrolindinyl]methoxybenzoic acid], the melting point was 162 to 168 °C (dec.).

As for `COc1cc(CC(=O)N2C3CCCCC3C[C@H]2COC2CCC(C(=O)O)CC2)ccc1NC(=O)Nc1ccccc1Cl` (stereo partly drawn) [Compound 178, cis-4-[1-[4-[N′-(2-chlorophenyl)ureido]-3-methoxylphenylacetyl]-(2S)-octahydroindolylmethoxy]cyclohexanecarboxylic acid], the melting point was 120 to 121 °C.

For the molecule `COc1cc(CC(=O)N(C)[C@@H](C)COc2ccc(C(=O)O)cc2Cl)ccc1NC(=O)Nc1ccccc1F` [Compound 283, (S)-3-chloro-4-[2-[N-methyl-N-[3-methoxy-4-[N′-(2-fluorophenyl)ureido]phenylacetyl]amino]-1-propoxy]benzoic acid], the melting point lay within 142 to 147 °C.

`COc1cc(CC(=O)N2C[C@@H](NS(C)(=O)=O)C[C@H]2COc2ccc(C(=O)O)cc2)ccc1NC(=O)Nc1ccccc1Br` [Compound 164, 4-[4-methanesulfonamido-1-[4-[N′-(2-bromophenyl)ureido]-3-methoxyphenylacetyl]-(2S)-pyrrolidinyl]methoxybenzoic acid] returned a melting point of 125 to 128 °C.

`COc1cc(CC(=O)N2C3CCCCC3C[C@H]2COc2ccc(C(=O)O)cc2)ccc1NC(=O)Nc1ccccc1C` (stereo partly drawn) [Compound 165, 4-[1-[3-methoxy-4-[N′-(2-methylphenyl)ureido]phenylacetyl]-(2S)-octahydroindolylmethoxy]benzoic acid] showed a melting point of 130 to 134 °C.

`COc1cc(CC(=O)N2CCC[C@H]2COc2ccc(C(=O)O)cc2)ccc1NC(=O)Nc1ccccc1Br` [Compound 59, 4-[1-[4-[N′-(2-bromophenyl)ureido]-3-methoxylphenylacetyl]-(2S)-pyrrolidinyl]methoxybenzoic acid] showed a melting point of 120 to 125 °C.

In turn, `COc1cc(CC(=O)N2CSC[C@H]2COc2ccc(C(=O)O)cc2)ccc1NC(=O)Nc1ccccc1C` (stereo in doubt) [Compound 168, 4-[3-[3-methoxy-4-[N′-(2-methylphenyl)ureido]phenyl]acetyl-4-thiazolidinyl]methoxybenzoic acid] had a melting point of 125 to 128 °C.

Another data set can be described thus: Mouse bio-assay: serum concentration after oral dosing, determined by direct binding assay of diluted serum. Particulars: female, Balb/c, serum, po, 10 mg/kg.
Protocol: A compound was dissolved or suspended with an appropriate solvent at 1 mg/mL. Female Balb/c mice (7–9 weeks old) were given the compound orally. Blood samples were collected from the postcaval vein of the anesthetized mice after fifteen minutes. Serum was prepared and stored at −20° C. Serum concentration of the compound was determined from inhibitory activities of the diluted serum by a direct binding assay using VLA-4-expressing cells and VCAM-IgG fusion protein. Serum concentration determined by this method correlated well with the concentration determined by LC/MS/MS methodologies.
In turn, `COc1cc(CC(=O)N2[C@H](COc3ccc(C(=O)O)cc3)CC[C@@H]2c2ccccc2)ccc1NC(=O)Nc1ccccc1Cl` [Compound 146, 4-[1-[4-[N′-(2-chlorophenyl)ureido]-3-methoxyphenylacetyl]-5-(R)-phenyl-2-(S)-pyrrolidinylmethoxy]benzoic acid] gave a concentration at 15 min of 527 ng/mL.

Staying with this data set, now noted: female, Balb/c, serum, po, 50 mg/kg.
Molecule `COc1cc(CC(=O)N2CCC[C@H]2COc2ccc(C(=O)O)cc2)ccc1NC(=O)Nc1ccccc1Cl` [Compound 58, 4-[1-[4-[N′-(2-chlorophenyl)ureido]-3-methoxylphenylacetyl]-(2S)-pyrrolindinyl]methoxybenzoic acid] came in with a concentration at 30 min of 3610 ng/mL.

As for `C=CCN(CC=C)CCN(CCOc1ccc(C(=O)O)cc1)C(=O)Cc1ccc(NC(=O)Nc2ccccc2Cl)c(OC)c1` [Compound 323, 4-[2-N-(N′, N′-diallyl)ethyl-N-[4-[N′-(2-chlorophenyl)ureido]-3-methoxyphenylacetamido]ethoxy]benzoic acid sodium salt], the concentration at 15 min is 1420 ng/mL.
